Results from patent US4311699A, “Aminoacid derivatives of cephalosporin compounds” (priority 1980, dated 1982).
≈ marks a conversion by molar mass, not a printed value. Read-outs that look alike come from different tables or passages of the source.

Experiments:
Experiment in all cases: in vitro antibacterial activity, minimal inhibitory concentration
Format in all cases: cell-based
E. coli Vogel = conditions: for MIC: Escherichia coli
Source text: (§1) The compounds of the invention are new chemical compounds that are used as pharmacological agents and especially as broad spectrum antibacterial agents. They are active in vitro against strains of both gram-positive and gram-negative bacteria.
(§2) Minimal Inhibitory Concentration (μg/ml)

Serr. marces. = system: Serr. marces.
Source text: as §1, §2

Pseudomonas BRK 12-4-4 = conditions: Pseudomonas BRK 12-4-4, in vitro; for MIC: BRK1244
Source text: as §1, §2

Pseudomonas #28 = conditions: for MIC: read-out: Minimal Inhibitory Concentration
Source text: as §1, §2

Klebs. pneu. = system: Klebs. pneu.
Source text: as §1, §2

E. coli Brig = conditions: for MIC: Escherichia coli
Source text: as §1, §2

Prot. vulg. = system: Prot. vulg.
Source text: as §1, §2

Staph. aureus S18733 = conditions: for MIC: Staphylococcus aureus
Source text: as §1, §2

Staph. aureus UC-76 = conditions: Staph. aureus UC-76, in vitro; for MIC: Staphylococcus aureus, UC76
Source text: as §1, §2

Strep. fec. = system: Strep. fec.
Source text: as §1, §2

Pseudomonas UI 18 = conditions: Pseudomonas UI 18, in vitro; for MIC: UI18
Source text: as §1, §2

Entero. cloacae = conditions: for MIC: Enterobacter cloacae
Source text: as §1, §2

| SMILES | MIC (E. coli Vogel) | MIC (Serr. marces.) | MIC (Pseudomonas BRK 12-4-4) | MIC (Pseudomonas #28; Pseudomonas #28, in vitro) | MIC (Klebs. pneu.) | MIC (E. coli Brig) | MIC (Prot. vulg.) | MIC (Staph. aureus S18733) | MIC (Staph. aureus UC-76) | MIC (Strep. fec.) | MIC (Pseudomonas UI 18) | MIC (Entero. cloacae) | also measured |
| --- | --- | --- | --- | --- | --- | --- | --- | --- | --- | --- | --- | --- | --- |
| CC(=O)N[C@H](C)C(=O)Nc1ccc(-c2ncc(C(=O)N[C@@H](C(=O)NC3C(=O)N4C(C(=O)O)=C(CSc5nnnn5CC(=O)O)CSC34)c3ccccc3)c(O)n2)cc1 (stereo partly drawn) [Example 34, N-[2-[4-(N-Acetyl-D-alanylamino)phenyl]-4-hydroxy-5-pyrimidinylcarbonyl]-7-[D-2-amino-2-phenylacetamido]-3-[[(1-carboxymethyl-1H-tetrazol-5-yl)thio]methyl]-3-cephem-4-carboxylic acid] | 3.1 µg/mL (≈ 3.73 µM) | > 50 µg/mL | 12.5 µg/mL (≈ 15 µM) | 12.5 µg/mL (≈ 15 µM) | 6.3 µg/mL (≈ 7.57 µM) | 12.5 µg/mL (≈ 15 µM) | 1.6 µg/mL (≈ 1.92 µM) | 25 µg/mL (≈ 30.1 µM) | 12.5 µg/mL (≈ 15 µM) | > 50 µg/mL | 12.5 µg/mL (≈ 15 µM) | 12.5 µg/mL (≈ 15 µM) |  |
| CC(=O)OCC1=C(C(=O)O)N2C(=O)[C@@H](NC(=O)[C@H](NC(=O)c3cnc(-c4ccc(NC(=O)C5CCC(=O)N5)cc4)nc3O)c3ccccc3)[C@H]2SC1 (mixture of isomers) [Example 6, N-[2-]4-((5-oxo-DL-prolyl)amino)phenyl]-4-hydroxy-5-pyrimidinylcarbonyl]-7-[D-2-amino-2-phenylacetamido]-3-acetoxymethyl-3-cephem-4-carboxylic acid] | 12.5 µg/mL | > 50 µg/mL | 12.5 µg/mL |  | 25 µg/mL | 50 µg/mL | 50 µg/mL | 6.3 µg/mL | 1.6 µg/mL | 50 µg/mL | 12.5 µg/mL | 50 µg/mL | MIC (Pseudomonas #28; Pseudomonas): 6.3 µg/mL |
| CC(=O)NCC(=O)Nc1ccc(-c2ncc(C(=O)N[C@@H](C(=O)NC3C(=O)N4C(C(=O)O)=C(CSc5nnc(C)s5)CSC34)c3ccccc3)c(O)n2)cc1 (stereo partly drawn) [Example 39, N-[2-[4-(N-Acetylglycylamino)phenyl]-4-hydroxy-5-pyrimidinylcarbonyl]-7-[D-2-amino-2-phenylacetamido]-3-[[(5-methyl-1,3,4-thiadiazol-2-yl)thio]methyl]-3-cephem-4-carboxylic acid] | 1.6 µg/mL (≈ 2.03 µM) | 50 µg/mL (≈ 63.3 µM) | 25 µg/mL (≈ 31.7 µM) | 12.5 µg/mL (≈ 15.8 µM) | 1.6 µg/mL (≈ 2.03 µM) | 12.5 µg/mL (≈ 15.8 µM) | 6.3 µg/mL (≈ 7.98 µM) | 3.1 µg/mL (≈ 3.92 µM) | 0.8 µg/mL (≈ 1.01 µM) | 50 µg/mL (≈ 63.3 µM) | 25 µg/mL (≈ 31.7 µM) | 6.3 µg/mL (≈ 7.98 µM) |  |
| CC(=O)N[C@@H](C)C(=O)Nc1ccc(-c2ncc(C(=O)N[C@@H](C(=O)NC3C(=O)N4C(C(=O)O)=C(CSc5nnnn5CC(=O)O)CSC34)c3ccccc3)c(O)n2)cc1 (stereo partly drawn) [Example 33] | 1.6 µg/mL (≈ 1.92 µM) | > 50 µg/mL | 12.5 µg/mL (≈ 15 µM) | 6.3 µg/mL (≈ 7.57 µM) | 6.3 µg/mL (≈ 7.57 µM) | 12.5 µg/mL (≈ 15 µM) | 3.1 µg/mL (≈ 3.73 µM) | 25 µg/mL (≈ 30.1 µM) | 6.3 µg/mL (≈ 7.57 µM) | > 50 µg/mL | 12.5 µg/mL (≈ 15 µM) | 6.3 µg/mL (≈ 7.57 µM) |  |
| CC(=O)NC(CCC(N)=O)C(=O)Nc1ccc(-c2ncc(C(=O)N[C@@H](C(=O)N[C@@H]3C(=O)N4C(C(=O)O)=C(COC(C)=O)CS[C@H]34)c3ccccc3)c(O)n2)cc1 (mixture of isomers) [Example 14, N-[2-[4-(N-Acetyl-DL-glutaminylamino)phenyl]-4-hydroxy-5-pyrimidinylcarbonyl]-7-[D-2-amino-2phenylacetamido]-3-acetoxymethyl-3-cephem-4-carboxylic acid] | 6.3 µg/mL | > 50 µg/mL | 12.5 µg/mL | 6.3 µg/mL | 12.5 µg/mL | 25 µg/mL | 25 µg/mL | 6.3 µg/mL | 1.6 µg/mL | 50 µg/mL | 12.5 µg/mL | 50 µg/mL |  |
| CC(=O)OCC1=C(C(=O)O)N2C(=O)[C@@H](NC(=O)[C@H](NC(=O)c3cnc(-c4ccc(NC(=O)C5CCCN5C(C)=O)cc4)nc3O)c3ccccc3)[C@H]2SC1 (mixture of isomers) [Example 13, N-[2-[4-(N-Acetyl-DL-prolylamino)phenyl]-4-hydroxy-5-pyrimidinylcarbonyl]-7-[D-2-amino-2-phenylacetamido]-3-acetoxy-methyl-3-cephem-4-carboxylic acid] | 12.5 µg/mL | > 50 µg/mL | 12.5 µg/mL | 6.3 µg/mL | 25 µg/mL | 50 µg/mL | 50 µg/mL | 6.3 µg/mL | 3.1 µg/mL | 50 µg/mL | 12.5 µg/mL | 50 µg/mL |  |
| CC(=O)NC(C)C(=O)Nc1ccc(-c2ncc(C(=O)N[C@@H](C(=O)N[C@@H]3C(=O)N4C(C(=O)O)=C(COC(N)=O)CS[C@H]34)c3ccccc3)c(O)n2)cc1 (mixture of isomers) [Example 20, N-[2-[4-(N-Acetyl-DL-alanylamino)phenyl]-4-hydroxy-5-pyrimidinylcarbonyl]-7-[D-2-amino-2-phenylacetamido]-3-carbamoyloxymethyl-3-cephem-4-carboxylic acid] | 12.5 µg/mL | > 50 µg/mL | 12.5 µg/mL | 6.3 µg/mL | 25 µg/mL | 50 µg/mL | 25 µg/mL | 3.1 µg/mL | 1.6 µg/mL | > 50 µg/mL | 6.3 µg/mL | > 50 µg/mL |  |
| CC(=O)N[C@@H](C)C(=O)Nc1ccc(-c2ncc(C(=O)N[C@@H](C(=O)N[C@@H]3C(=O)N4C(C(=O)O)=C(COC(C)=O)CS[C@H]34)c3ccccc3)c(O)n2)cc1 [Example 10, N-[2-[4-(N-Acetyl-L-alanylamino)phenyl]-4-hydroxy-5-pyrimidinylcarbonyl]-7-[D-2-amino-2-phenylacetamido]-3-acetoxy-methyl-3-cephem-4-carboxylic acid] | 12.5 µg/mL (≈ 17.1 µM) | > 50 µg/mL | 12.5 µg/mL (≈ 17.1 µM) | 6.3 µg/mL (≈ 8.61 µM) | 25 µg/mL (≈ 34.2 µM) | 25 µg/mL (≈ 34.2 µM) | 25 µg/mL (≈ 34.2 µM) | 6.3 µg/mL (≈ 8.61 µM) | 3.1 µg/mL (≈ 4.24 µM) | 50 µg/mL (≈ 68.3 µM) | 6.3 µg/mL (≈ 8.61 µM) | 50 µg/mL (≈ 68.3 µM) |  |
| CC(=O)NC(C)(C)C(=O)Nc1ccc(-c2ncc(C(=O)N[C@@H](C(=O)NC3C(=O)N4C(C(=O)O)=C(CSc5nnnn5C)CSC34)c3ccccc3)c(O)n2)cc1 (stereo partly drawn) [Example 28] | 3.1 µg/mL (≈ 3.87 µM) | 50 µg/mL (≈ 62.4 µM) | 6.3 µg/mL (≈ 7.86 µM) | 3.1 µg/mL (≈ 3.87 µM) | 6.3 µg/mL (≈ 7.86 µM) | 12.5 µg/mL (≈ 15.6 µM) | 25 µg/mL (≈ 31.2 µM) | 6.3 µg/mL (≈ 7.86 µM) | 3.1 µg/mL (≈ 3.87 µM) | 50 µg/mL (≈ 62.4 µM) | 6.3 µg/mL (≈ 7.86 µM) | 6.3 µg/mL (≈ 7.86 µM) |  |
| CC(=O)NC(C)C(=O)Nc1ccc(-c2ncc(C(=O)N[C@@H](C(=O)NC3C(=O)N4C(C(=O)O)=C(CSc5nnnn5CC(=O)O)CSC34)c3ccccc3)c(O)n2)cc1 (mixture of isomers) [Example 35, N-[2-[4-(N-Acetyl-DL-alanylamino)phenyl]-4-hydroxy-5-pyrimidinylcarbonyl]-7-[D-2-phenylacetamido-3-[[(1-carboxymethyl-1H-tetrazol-5-yl)thio]methyl]-3-cephem-4-carboxylic acid] | 3.1 µg/mL | 50 µg/mL | 12.5 µg/mL | 6.3 µg/mL | 6.3 µg/mL | 6.3 µg/mL | 3.1 µg/mL | 25 µg/mL | 12.5 µg/mL | > 50 µg/mL | 12.5 µg/mL | 6.3 µg/mL |  |
| CC(=O)N[C@H](C)C(=O)Nc1ccc(-c2ncc(C(=O)N[C@@H](C(=O)NC3C(=O)N4C(C(=O)O)=C(CSc5nnnn5CC(=O)O)CSC34)c3ccc(O)cc3)c(O)n2)cc1 (stereo partly drawn) [Example 37, N-[2-[4-(N-Acetyl-D-alanylamino)phenyl]-4-hydroxy-5-pyrimidinylcarbonyl)-7-[D-2amino-2-(4-hydroxyphenyl)acetamido]-3-[[(1-carboxymethyl-1H-tetrazol-5-yl)thio]methyl]-3-cephem-4-carboxylic acid] | 3.1 µg/mL (≈ 3.66 µM) | > 50 µg/mL | 12.5 µg/mL (≈ 14.7 µM) | 12.5 µg/mL (≈ 14.7 µM) | 12.5 µg/mL (≈ 14.7 µM) | 12.5 µg/mL (≈ 14.7 µM) | 1.6 µg/mL (≈ 1.89 µM) | 25 µg/mL (≈ 29.5 µM) | 25 µg/mL (≈ 29.5 µM) | > 50 µg/mL | 6.3 µg/mL (≈ 7.43 µM) | 12.5 µg/mL (≈ 14.7 µM) |  |
| CC(=O)OCC1=C(C(=O)O)N2C(=O)C(NC(=O)[C@H](NC(=O)c3cnc(-c4ccc(NC(=O)[C@@H]5C[C@@H](O)CN5C(C)=O)cc4)nc3O)c3ccccc3)[C@H]2SC1 (stereo partly drawn) [Example 15, N-[2-[4-(N-Acetyl-L-hydroxyprolylamino)phenyl]-4-hydroxy-5-pyrimidinylcarbonyl]-7-[D-2-amino-2-phenylacetamido]-3-acetoxymethyl-3-cephem-4-carboxylic acid] |  |  |  |  |  |  |  |  |  |  |  |  | Minimal Inhibitory Concentration (E. coli Vogel): 6.3 µg/mL; Minimal Inhibitory Concentration (Serr. marces.): > 50 µg/mL; Minimal Inhibitory Concentration (Pseudomonas BRK 12-4-4): 12.5 µg/mL; Minimal Inhibitory Concentration (Pseudomonas #28; Pseudomonas #28, in vitro): 3.1 µg/mL; Minimal Inhibitory Concentration (Klebs. pneu.): 12.5 µg/mL; Minimal Inhibitory Concentration (E. coli Brig): 50 µg/mL; Minimal Inhibitory Concentration (Prot. vulg.): 50 µg/mL; Minimal Inhibitory Concentration (Staph. aureus S18733): 6.3 µg/mL; Minimal Inhibitory Concentration (Staph. aureus UC-76): 1.6 µg/mL; Minimal Inhibitory Concentration (Strep. fec.): 25 µg/mL; Minimal Inhibitory Concentration (Pseudomonas UI 18): 3.1 µg/mL; Minimal Inhibitory Concentration (Entero. cloacae): > 50 µg/mL |
| CC(=O)N[C@@H](C(=O)Nc1ccc(-c2ncc(C(=O)N[C@@H](C(=O)NC3C(=O)N4C(C(=O)O)=C(CSc5nnnn5C)CSC34)c3ccccc3)c(O)n2)cc1)C(C)C (stereo partly drawn) [Example 29] | 1.6 µg/mL (≈ 1.96 µM) | 50 µg/mL (≈ 61.3 µM) | 12.5 µg/mL (≈ 15.3 µM) | 6.3 µg/mL (≈ 7.72 µM) | 3.1 µg/mL (≈ 3.8 µM) | 12.5 µg/mL (≈ 15.3 µM) | 6.3 µg/mL (≈ 7.72 µM) | 3.1 µg/mL (≈ 3.8 µM) | 1.6 µg/mL (≈ 1.96 µM) | 25 µg/mL (≈ 30.6 µM) | 6.3 µg/mL (≈ 7.72 µM) | 12.5 µg/mL (≈ 15.3 µM) |  |
